For 41 compounds, EC50 results are on record in ChEMBL document CHEMBL1153748 (J Med Chem, 2010).

pEC50: −log10 of the molar value. Some results are limits rather than exact numbers.

Assay [1] has as its target T1, Peroxisome proliferator-activated receptor gamma (Homo sapiens, UniProt P37231).
T1 sequence (P37231 whole entry): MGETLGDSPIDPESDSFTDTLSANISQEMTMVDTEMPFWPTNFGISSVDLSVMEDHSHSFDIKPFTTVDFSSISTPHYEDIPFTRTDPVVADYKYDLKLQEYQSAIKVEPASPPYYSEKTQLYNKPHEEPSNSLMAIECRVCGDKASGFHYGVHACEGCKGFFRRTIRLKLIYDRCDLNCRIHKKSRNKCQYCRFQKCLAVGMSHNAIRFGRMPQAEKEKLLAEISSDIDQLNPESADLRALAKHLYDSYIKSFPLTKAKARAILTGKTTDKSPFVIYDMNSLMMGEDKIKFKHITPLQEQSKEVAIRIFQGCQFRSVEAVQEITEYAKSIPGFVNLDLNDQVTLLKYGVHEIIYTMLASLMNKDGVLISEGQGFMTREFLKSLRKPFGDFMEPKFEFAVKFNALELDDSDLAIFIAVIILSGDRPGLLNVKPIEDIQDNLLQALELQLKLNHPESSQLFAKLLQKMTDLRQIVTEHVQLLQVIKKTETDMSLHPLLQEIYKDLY
Format: cell-based, 293T. Conditions: read-out: EC50.

For assay [2], the target named is T2, Peroxisome proliferator-activated receptor alpha (Homo sapiens, UniProt Q07869).
T2 sequence (Q07869 whole entry): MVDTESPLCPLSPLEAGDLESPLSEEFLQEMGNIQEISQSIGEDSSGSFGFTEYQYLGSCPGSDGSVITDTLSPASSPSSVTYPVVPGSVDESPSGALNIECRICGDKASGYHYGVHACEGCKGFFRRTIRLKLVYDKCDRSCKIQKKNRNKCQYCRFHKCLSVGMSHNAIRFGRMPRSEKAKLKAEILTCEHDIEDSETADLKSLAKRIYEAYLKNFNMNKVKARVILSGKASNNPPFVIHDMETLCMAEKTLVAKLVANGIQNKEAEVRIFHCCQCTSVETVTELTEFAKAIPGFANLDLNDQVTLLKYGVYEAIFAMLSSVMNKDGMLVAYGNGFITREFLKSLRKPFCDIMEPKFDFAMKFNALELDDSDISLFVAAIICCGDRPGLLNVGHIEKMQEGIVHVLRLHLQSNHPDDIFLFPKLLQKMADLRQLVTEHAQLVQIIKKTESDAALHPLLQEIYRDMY
In words: Agonist activity at human PPARalpha ligand binding domain expressed in human 293T cells co-transfected with Gal4-DBD by luciferase transactivation assay. The format is cell-based. Conditions: read-out: EC50.

For assay [3], the target named is T3, Peroxisome proliferator-activated receptor delta (Homo sapiens, UniProt Q03181).
T3 sequence (Q03181 whole entry): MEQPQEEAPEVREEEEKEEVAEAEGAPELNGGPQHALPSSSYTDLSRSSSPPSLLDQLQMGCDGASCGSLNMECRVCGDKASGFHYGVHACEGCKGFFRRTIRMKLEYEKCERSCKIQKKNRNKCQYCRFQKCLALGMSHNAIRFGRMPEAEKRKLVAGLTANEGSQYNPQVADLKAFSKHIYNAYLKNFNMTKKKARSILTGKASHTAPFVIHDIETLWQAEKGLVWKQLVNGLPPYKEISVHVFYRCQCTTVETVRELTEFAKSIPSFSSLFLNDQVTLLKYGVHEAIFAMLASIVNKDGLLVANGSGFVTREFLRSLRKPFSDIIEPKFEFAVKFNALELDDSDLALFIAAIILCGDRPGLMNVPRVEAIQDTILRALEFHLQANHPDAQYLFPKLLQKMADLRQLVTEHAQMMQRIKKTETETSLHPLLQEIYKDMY

With `Cc1cc(OCc2nc(-c3ccc(Cl)cc3)c(-c3ccccc3)s2)ccc1OCC(=O)O`, the figures for the pEC50 in assay [1], in assay [2] and in assay [3] were below 5.00, below 5.00 and 5.23, respectively.
In the case of `Cc1cc(OCc2nc(-c3ccc4c(c3)OCCCO4)c(-c3ccc(OC(F)(F)F)cc3)s2)ccc1OCC(=O)O`, the pEC50 in assay [1] was below 5.00; in assay [2], below 5.00; in assay [3], 7.89.
With `CCC(C)Oc1ccc(-c2nc(COc3ccc(OCC(=O)O)c(C)c3)sc2-c2ccc(OC(F)(F)F)cc2)cc1` (stereo not drawn), the pEC50 is below 5.00 in assay [1], below 5.00 in assay [2] and 7.74 in assay [3].
Regarding `COc1ccc(-c2nc(COc3ccc(OCC(=O)O)c(C)c3)sc2-c2ccc(C(C)(C)C)cc2)cc1`, the pEC50 in assay [1] is below 5.00; in assay [2] it was below 5.00; in assay [3], 6.14.
In the case of `COc1ccc(-c2nc(COc3ccc(OCC(=O)O)c(C)c3)sc2-c2cc3ccccc3o2)cc1`, the pEC50 in assay [1] is below 5.00; in assay [2], below 5.00; in assay [3] it was 7.30.
With `COc1ncc(-c2nc(COc3ccc(OCC(=O)O)c(C)c3)oc2-c2ccc(OC(F)(F)F)cc2)cn1`, the pEC50 is below 5.00 in assay [1], below 5.00 in assay [2] and 7.85 in assay [3].
On to `CCOc1ccc(-c2nc(COc3ccc(OCC(=O)O)c(C)c3)sc2-c2ccc(OC(F)(F)F)cc2)cc1`, for which the pEC50 was below 5.00 in assay [1], below 5.00 in assay [2] and 7.49 in assay [3].
Consider `COc1ccc(-c2nc(COc3ccc(CC(=O)O)cc3)sc2-c2ccc(C(F)(F)F)cc2)cc1`, for which the values for the pEC50 in assay [1], in assay [2] and in assay [3] were below 5.00, below 5.00 and 5.89, respectively.
As to `COc1ccc(-c2nc(Sc3cccc(C(C)C(=O)O)c3)sc2-c2ccc(OC)cc2)cc1` (stereo not drawn), the negative-log EC50 (pEC50) was 5.64 in assay [1], 6.52 in assay [2] and 5.49 in assay [3].
The matching figures for `Cc1cc(OCc2nc(-c3ccccc3)c(-c3ccc(Cl)cc3)s2)ccc1OCC(=O)O`: below 5.00, below 5.00 and 6.89.
With `Cc1cc(OCc2nc(-c3ccc(N4CCOCC4)nc3)c(-c3ccc(OC(F)(F)F)cc3)s2)ccc1OCC(=O)O`, the figures for the pEC50 in assay [1], in assay [2] and in assay [3] were below 5.00, below 5.00 and 7.74, respectively.
On to `COc1ccc(-c2nc(COc3ccc(CC(=O)O)cc3Cl)sc2-c2ccc(OC)cc2)cc1`, for which the pEC50 in assay [1] was below 5.00.
As for `CCCOc1ccc(-c2nc(COc3ccc(OCC(=O)O)c(C)c3)sc2-c2ccc(OC(F)(F)F)cc2)cc1`, the pEC50 in assay [1] was below 5.00; in assay [2], below 5.00; in assay [3], 7.46.
Turning to `COc1ccc(-c2nc(COc3ccc(OCC(=O)O)c(C)c3)sc2-c2ccc(OC)cc2)cc1`, the figures for the pEC50 in assay [1], in assay [2] and in assay [3] were below 5.00, below 5.00 and 7.00, respectively.
With `COc1ccc(-c2nc(COc3ccc(OCC(=O)O)c(C)c3)sc2-c2cccc3ccccc23)cc1`, the pEC50 in assay [1], in assay [2] and in assay [3] was below 5.00 in each case.
With `COc1ccc(-c2nc(Sc3ccc(CC(=O)O)cc3Cl)sc2-c2ccc(OC)cc2)cc1`, the pEC50 in assay [1] was below 5.00.
Turning to `COc1ccc(-c2nc(SCc3ccc(OCC(=O)O)c(C)c3)sc2-c2ccc(OC)cc2)cc1`, the pEC50 in assay [1] was below 5.00; in assay [2], below 5.00; in assay [3] it was 5.25.
On to `COc1ccc(-c2nc(COc3ccc(OCC(=O)O)c(C)c3)sc2-c2ccc(Cl)nc2)cc1`, for which the pEC50 in assay [1] is below 5.00; in assay [2], below 5.00; in assay [3] it was 6.06.
With `CCCCOc1ccc(-c2nc(COc3ccc(OCC(=O)O)c(C)c3)sc2-c2ccc(OC(F)(F)F)cc2)cc1`, the pEC50 in assay [1] is below 5.00; in assay [2], below 5.00; in assay [3], 7.59.
With `COc1ccc(-c2nc(COc3ccc(OCC(=O)O)c(C)c3)sc2-c2ccc(Cl)cc2)cc1`, the pEC50 in assay [1] was below 5.00; in assay [2] it was below 5.00; in assay [3], 7.22.
With `COc1ccc(-c2nc(COc3ccc(OCC(=O)O)c(C)c3)oc2-c2ccc(OC)cc2)cc1`, the pEC50 in assay [1] is below 5.00; in assay [2], below 5.00; in assay [3], 6.92.
Consider `Cc1cc(OCc2nc(-c3ccc(-c4ccccc4)cc3)c(-c3ccc(OC(F)(F)F)cc3)s2)ccc1OCC(=O)O`, for which the pEC50 in assay [1] is below 5.00; in assay [2], below 5.00; in assay [3] it was 6.80.
Take `Cc1ccc(-c2sc(COc3ccc(OCC(=O)O)c(C)c3)nc2-c2cccnc2)cc1`: the results for the pEC50 in assay [1], in assay [2] and in assay [3] were below 5.00, below 5.00 and 6.72, respectively.
For the compound `CCCc1c(OCCCSc2ccc(CC(=O)O)cc2Cl)ccc2c(CC)noc12` [L-165461], in assay [2], the pEC50 was 5.89.
Turning to `COc1ccc(-c2nc(COc3ccc(OCC(=O)O)c(C)c3)sc2-c2ccc3ccccc3c2)cc1`, the pEC50 in assay [1] is below 5.00; in assay [2] it was below 5.00; in assay [3], 7.70.
Consider `COc1ccc(-c2nc(COc3ccc(CC(=O)O)cc3Cl)sc2-c2ccc(C(F)(F)F)cc2)cc1`, for which the pEC50 in assay [1] was below 5.00; in assay [2], below 5.00; in assay [3] it was 6.32.
Regarding `Cc1cc(OCc2nc(-c3ccc4c(c3)OCO4)c(-c3ccc(OC(F)(F)F)cc3)s2)ccc1OCC(=O)O`, the pEC50 is below 5.00 in assay [1], below 5.00 in assay [2] and 7.51 in assay [3].
Regarding `COc1ccc(-c2nc(COc3ccc4c(ccn4CC(=O)O)c3)sc2-c2ccc(C(F)(F)F)cc2)cc1`, the pEC50 in assay [1] was below 5.00; in assay [2], below 5.00; in assay [3], 6.47.
Turning to `COc1ccc(-c2nc(COc3ccc(OCC(=O)O)c(C)c3)sc2-c2ccccc2)cc1`, the figures for the pEC50 in assay [1], in assay [2] and in assay [3] were below 5.00, below 5.00 and 6.72, respectively.
As to `COc1ncc(-c2nc(COc3ccc(OCC(=O)O)c(C)c3)sc2-c2ccc(OC(F)(F)F)cc2)cn1`, the pEC50 in assay [1] was below 5.00; in assay [2], below 5.00; in assay [3], 7.47.
Regarding `Cc1cc(OCc2nc(-c3ccc(C(=O)N(C)C)cc3)c(-c3ccc(OC(F)(F)F)cc3)s2)ccc1OCC(=O)O`, the results for the pEC50 in assay [1], in assay [2] and in assay [3] were below 5.00, below 5.00 and 7.64, respectively.
Take `Cc1cc(OCc2cc(-c3ccc(C(F)(F)F)cc3)cc(-c3ccc(C(F)(F)F)cc3)c2)ccc1OCC(=O)O`: the pEC50 in assay [1] and in assay [2] was below 5.00 throughout.
Regarding `COc1ccc(-c2nc(COc3ccc(OCC(=O)O)c(C)c3)oc2-c2cccc(C(F)(F)F)c2)cc1`, the values for the pEC50 in assay [1], in assay [2] and in assay [3] were below 5.00, below 5.00 and 6.19, respectively.
As to `CCCc1ccc(-c2sc(COc3ccc(OCC(=O)O)c(C)c3)nc2-c2ccc(OC)cc2)cc1`, the pEC50 in assay [1] is below 5.00; in assay [2], below 5.00; in assay [3] it was 6.29.
In the case of `Cc1cc(OCc2nc(-c3ccc(C(F)(F)F)cc3)cs2)ccc1OCC(=O)O`, the pEC50 in assay [1] is below 5.00; in assay [2], below 5.00; in assay [3] it was 5.86.
On to `COc1ccc(-c2nc(COc3ccc(CCC(=O)O)c(C)c3)sc2-c2ccc(C(F)(F)F)cc2)cc1`, for which the pEC50 in assay [1] was below 5.00; in assay [2] it was below 5.00; in assay [3], 6.85.
Take `COc1cccc(-c2nc(COc3ccc(OCC(=O)O)c(C)c3)sc2-c2ccc(OC(F)(F)F)cc2)c1`: the pEC50 in assay [1] is below 5.00; in assay [2] it was below 5.00; in assay [3], 6.92.
Turning to `COc1ccc(-c2nc(SCCCCOc3ccc(CC(=O)O)cc3Cl)sc2-c2ccc(OC)cc2)cc1`, the pEC50 in assay [1] is 5.59.
Still for that read-out and setting: in the case of `COc1ccc(-c2nc(SCCCOc3ccc(CC(=O)O)cc3Cl)sc2-c2ccc(OC)cc2)cc1` it was 5.34; in that of `COc1ccc(-c2nc(SCCOc3ccc(CC(=O)O)cc3Cl)sc2-c2ccc(OC)cc2)cc1`, 5.23.
For the compound `COc1ccc(-c2nc(SCc3ccc(CC(=O)O)cc3Cl)sc2-c2ccc(OC)cc2)cc1`, the pEC50 in assay [1] is below 5.00.
